Assay results as given in patent publication US6875760B2 (Novo Nordisk A/S, priority 1999, dated 2005).
pIC50: −log10 of the molar value.

Molecular target: T1, cloned human glucagon receptor (Homo sapiens, UniProt P47871)
T1 construct: expressed in transfected cells; plasma membrane preparation
Experiment: Glucagon Binding Assay (II)
Details: plasma membranes of BHK cells expressing the receptor; read-out: Glu Bd Assay (II) IC50
Description: Binding of compounds to the glucagon receptor was determined in a competition binding assay using the cloned human glucagon receptor.
The receptor inserted in the pLJ6′ expression vector using EcoRI/SSt1 restriction sites (Lok et al.) was expressed in a baby hamster kidney cell line (A3 BHK 570-25).
The homogenate was resuspended and centrifuged again. The final precipitate containing the plasma membranes was suspended in buffer and stored at −80° C. until use.
Binding assays were carried out in duplicate in polypropylene tubes or microtiter plates. The buffer used in this assay was 50 mM HEPES pH 7.4 containing 5 mM EGTA, 5 mM MgCl2 and 0.005% Tween 20. Sample (glucagon (Bachem CA) or test compounds) was added to each tube or well. Tracer (˜25.000 cpm) was diluted in buffer and was added to each tube or well. 0.5 mg freshly thawed plasma membrane protein diluted in buffer was then added in aliquots to each tube or well. Tubes or plates were incubated at 37° C. for 1 hour. Non-specific binding was determined with 10^−7 M of glucagon. Bound tracer and unbound tracer were then separated by vacuum filtration. The tubes or wells were washed twice with 0.01% Triton X-100 buffer. Scintillation fluid was added to the plates and radioactivity was quantified using a scintillation counter.

T1 sequence (P47871 26-477): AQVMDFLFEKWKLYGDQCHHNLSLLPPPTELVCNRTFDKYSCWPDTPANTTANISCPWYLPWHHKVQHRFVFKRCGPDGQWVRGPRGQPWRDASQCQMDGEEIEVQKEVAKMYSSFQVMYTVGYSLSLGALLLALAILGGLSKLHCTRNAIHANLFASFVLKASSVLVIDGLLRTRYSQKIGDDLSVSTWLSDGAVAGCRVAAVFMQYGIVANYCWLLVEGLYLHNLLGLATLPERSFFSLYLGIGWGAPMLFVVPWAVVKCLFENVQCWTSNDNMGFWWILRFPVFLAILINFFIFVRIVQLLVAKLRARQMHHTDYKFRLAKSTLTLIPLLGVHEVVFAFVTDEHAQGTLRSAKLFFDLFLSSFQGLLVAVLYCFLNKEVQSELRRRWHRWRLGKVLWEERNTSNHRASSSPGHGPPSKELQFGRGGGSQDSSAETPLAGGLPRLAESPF

Row | Compound | pIC50
1 | CC(C)(C)C1CCC(N(Cc2ccc(C(=O)NCCC(=O)O)cc2)C(=O)Nc2cc(Cl)nc(Cl)c2)CC1 (stereo not drawn) [Example 103, 3-{4-[1-(4-tert-Butylcyclohexyl)-3-(2,6-dichloropyridin-4-yl)ureidomethyl]benzoylamino)propionic acid] | 6.82
2 | CC(C)(C)C1CCC(N(Cc2ccc(C(=O)NCCC(=O)O)cc2)C(=O)Nc2cc(Cl)cc(Cl)c2)CC1 (stereo not drawn) [Example 104, 3-{4-[1-(4-tert-Butylcyclohexyl)-3-(3,5-dichlorophenyl)ureidomethyl]benzoylamino)propionic acid] | 7.30
3 | CC(C)(C)C1CCC(N(Cc2ccc(S(=O)(=O)NCCC(=O)O)cc2)C(=O)Nc2ccc(SC(F)(F)F)cc2)CC1 (stereo not drawn) [Example 105, 3-{4-[1-(4-tert-Butylcyclohexyl)-3-(4-trifluoromethylsulfanylphenyl)ureidomethyl]benzenesulfonylamino)propionic acid] | 6.35
4 | CC(C)(C)C1CCC(N(Cc2ccc(S(=O)(=O)NCCC(=O)O)cc2)C(=O)Nc2ccc(OC(F)(F)F)cc2)CC1 (stereo not drawn) [Example 106, 3-{4-[1-(4-tert-Butylcyclohexyl)-3-(4-trifluoromethoxyphenyl)ureidomethyl]benzenesulfonylamino)propionic acid] | 6.33
5 | Cc1ccc(NC(=O)N(Cc2ccc(S(=O)(=O)NCCC(=O)O)cc2)C2CCC(C(C)(C)C)CC2)cc1F (stereo not drawn) [Example 107, 3-{4-[1-(4-tert-Butylcyclohexyl)-3-(3-fluoro-4-methylphenyl)ureidomethyl]benzenesulfonylamino)propionic acid] | 5.92
6 | CC(C)(C)c1ccc(CN(Cc2ccc(C(=O)NCCC(=O)O)cc2)C(=O)Nc2cc(Cl)cc(Cl)c2)cc1 [Example 108, 3-{4-[1-(4-tert-Butylbenzyl)-3-(3,5-dichlorophenyl)ureidomethyl]benzoylamino)propionic acid] | 6.17
7 | C[C@H](C1CCCCC1)N(Cc1ccc(C(=O)NCCC(=O)O)cc1)C(=O)Nc1ccc2ccccc2c1 [Example 109, 3-{4-[1-((1R)-1-Cyclohexylethyl)-3-naphthalene-2-ylureidomethyl]benzoylamino)propionic acid] | 6.04
8 | C[C@@H](C1CCCCC1)N(Cc1ccc(C(=O)NCCC(=O)O)cc1)C(=O)Nc1ccc2ccccc2c1 [Example 110, 3-{4-[1-((1S)-1-Cyclohexylethyl)-3-naphthalene-2-ylureidomethyl]benzoylamino)propionic acid] | 6.16
9 | CCCCc1ccc(NC(=O)N(Cc2ccc(C(=O)NCCC(=O)O)cc2)C2Cc3ccccc3C2)cc1 [Example 112, 3-{4-[1-(2,3-Dihydro-1H-inden-2-yl)-3-(4-butylphenyl)ureidomethyl]benzoylamino)propionic acid] | 6.66
10 | CC(C)(C)C1CCC(N(Cc2ccc(C(=O)NCCC(=O)O)s2)C(=O)Nc2ccc(OC(F)(F)F)cc2)CC1 (stereo not drawn) [Example 113, 3-{5-[1-(4-tert-Butylcyclohexyl)-3-(4-trifluoromethoxyphenyl)ureidomethyl]thiophene-2-carbonylamino)propionic acid] | 6.60
11 | CC1C(N(Cc2ccc(C(=O)NCCC(=O)O)cc2)C(=O)Nc2cc(Cl)cc(Cl)c2)CC2CC1C2(C)C (stereo not drawn) [Example 114] | 6.24

Same assay, conditions: screened at 1 μM; library compounds; read-out: displacement of the glucagon tracer when screened at 1 μM concentration in the glucagon binding assay II

Row | Compound | inhibition at 1 µM [%]
12 | O=C(O)CCNC(=O)c1ccc(CN(Cc2ccccc2OC(F)(F)F)C(=O)Nc2ccc3ccccc3c2)cc1 [Example 115, 3-{4-[1-(2-Trifluoromethoxybenzyl)-3-naphthalene-2-ylureidomethyl]benzoylamino)propionic acid] | > 50
13 | CCCCc1ccc(NC(=O)N(Cc2ccc(C(=O)NCCC(=O)O)cc2)Cc2ccccc2OC(F)(F)F)cc1 [Example 116, 3-{4-[1-(2-Trifluoromethoxybenzyl)-3-(4-butylphenyl)ureidomethyl]benzoylamino)propionic acid] | > 50
14 | O=C(O)CCNC(=O)c1ccc(CN(Cc2ccccc2OC(F)(F)F)C(=O)Nc2ccc(SC(F)(F)F)cc2)cc1 [Example 117, 3-{4-[1-(2-Trifluoromethoxybenzyl)-3-(4-trifluoromethylsulfanylphenyl)ureidomethyl]benzoylamino)propionic acid] | > 50
15 | CCCCOc1ccc(NC(=O)N(Cc2ccc(C(=O)NCCC(=O)O)cc2)Cc2ccc(C(F)(F)F)cc2)cc1 [Example 119, 3-{4-[1-(4-Trifluoromethylbenzyl)-3-(4-butoxyphenyl)ureidomethyl]benzoylamino)propionic acid] | > 50
16 | CCCCOc1ccc(NC(=O)N(Cc2ccc(C(=O)NCCC(=O)O)s2)Cc2ccccc2OC(F)(F)F)cc1 [Example 125, 3-{5-[1-(2-Trifluoromethoxybenzyl)-3-(4-butoxyphenyl)ureidomethyl]thiophene-2-carbonylamino)propionic acid] | > 50
17 | CCCCOc1ccc(NC(=O)N(Cc2ccc(C(C)(C)C)cc2)Cc2ccc(C(=O)NCCC(=O)O)s2)cc1 [Example 129, 3-{5-[1-(4-tert-Butylbenzyl)-3-(4-butoxyphenyl)ureidomethyl]thiophene-2-carbonylamino)propionic acid] | > 50

Second part, the compound after the results:

Row | inhibition at 1 µM [%] | Compound
18 | > 50 | CCCCc1ccc(NC(=O)N(Cc2ccc(C(=O)NCCC(=O)O)cc2)Cc2ccc(C(F)(F)F)cc2)cc1 [Example 118, 3-{4-[1-(4-Trifluoromethylbenzyl)-3-(4-butylphenyl)ureidomethyl]benzoylamino)propionic acid]
19 | > 50 | O=C(O)CCNC(=O)c1ccc(CN(Cc2ccc(C(F)(F)F)cc2)C(=O)Nc2ccc(SC(F)(F)F)cc2)cc1 [Example 120, 3-{4-[1-(4-Trifluoromethylbenzyl)-3-(4-trifluoromethylsulfanylphenyl)ureidomethyl]benzoylamino)propionic acid]
20 | > 50 | COc1cc(CN(Cc2ccc(C(=O)NCCC(=O)O)cc2)C(=O)Nc2ccc(C)cc2)ccc1O [Example 121, 3-{4-[1-(4-Hydroxy-3-methoxybenzyl)-3-(4-methylphenyl)ureidomethyl]benzoylamino)propionic acid]
21 | > 50 | COc1cc(CN(Cc2ccc(C(=O)NCCC(=O)O)cc2)C(=O)Nc2ccc3c(c2)OCO3)ccc1O [Example 122, 3-{4-[1-(4-Hydroxy-3-methoxybenzyl)-3-(3,4-methylenedioxyphenyl)ureidomethyl]benzoylamino)propionic acid]
22 | > 50 | O=C(O)CCNC(=O)c1ccc(CN(CC2(O)CCCCC2)C(=O)Nc2ccc3c(c2)OCO3)cc1 [Example 123, 3-{4-[1-(1-Hydroxycyclohexylmethyl)-3-(3,4-methylenedioxyphenyl)ureidomethyl]benzoylamino)propionic acid]
23 | > 50 | O=C(O)CCNC(=O)c1ccc(CN(Cc2ccccc2OC(F)(F)F)C(=O)Nc2ccc3ccccc3c2)s1 [Example 124, 3-{5-[1-(2-Trifluoromethoxybenzyl)-3-naphthalene-2-ylureidomethyl]thiophene-2-carbonylamino)propionic acid]
24 | > 50 | O=C(O)CCNC(=O)c1ccc(CN(Cc2ccccc2OC(F)(F)F)C(=O)Nc2ccc(SC(F)(F)F)cc2)s1 [Example 126, 3-{5-[1-(2-Trifluoromethoxybenzyl)-3-(4-trifluoromethylsulfanylphenyl)ureidomethyl]thiophene-2-carbonylamino)propionic acid]
25 | > 50 | CC(C)(C)c1ccc(CN(Cc2ccc(C(=O)NCCC(=O)O)s2)C(=O)Nc2ccc3ccccc3c2)cc1 [Example 127, 3-{5-[1-(4-tert-Butylbenzyl)-3-naphthalene-2-ylureidomethyl]thiophene-2-carbonylamino)propionic acid]
26 | > 50 | O=C(O)CCNC(=O)c1ccc(CN(Cc2ccc(C(F)(F)F)cc2)C(=O)Nc2ccc3ccccc3c2)s1 [Example 128, 3-{5-[1-(4-Trifluoromethylbenzyl)-3-naphthalene-2-ylureidomethyl]thiophene-2-carbonylamino)propionic acid]
27 | > 50 | CC(C)(C)c1ccc(CN(Cc2ccc(C(=O)NCCC(=O)O)s2)C(=O)Nc2ccc(SC(F)(F)F)cc2)cc1 [Example 130, 3-{5-[1-(4-tert-Butylbenzyl)-3-(4-trifluoromethylsulfanylphenyl)ureidomethyl]thiophene-2-carbonylamino)propionic acid]
28 | > 50 | O=C(O)CCNC(=O)c1ccc(CN(Cc2ccc(C(F)(F)F)cc2)C(=O)Nc2ccc(SC(F)(F)F)cc2)s1 [Example 131, 3-{5-[1-(4-Trifluoromethylbenzyl)-3-(4-trifluoromethylsulfanylphenyl)ureidomethyl]thiophene-2-carbonylamino)propionic acid]
29 | > 50 | CC(C)(C)C1CCC(N(Cc2ccc(C(=O)NCCC(=O)O)cc2)C(=O)NC2CC2c2ccccc2)CC1 (stereo not drawn) [Example 132, 3-{4-[1-(4-tert-Butylcyclohexyl)-3-(2-phenylcyclopropyl)ureidomethyl]benzoylamino)propionic acid]
30 | > 50 | CC(C)(C)C1CCC(N(Cc2ccc(C(=O)NCCC(=O)O)cc2)C(=O)Nc2ccc(Br)cc2)CC1 (stereo not drawn) [Example 133, 3-{4-[3-(4-Bromophenyl)-1-(4-tert-butylcyclohexyl)ureidomethyl]benzoylamino)propionic acid]
